Test results taken from patent publication US20230130103A1, “TARGETED PHARMACOLOGICAL THERAPEUTICS IN UVEAL MELANOMA” (Washington University, priority 2017, published 2023).
Starred links: 1 amine or outer side, 2 acyl side, 3 side chain; linkers in the order of their positions; H or OH if unused. Positions of bridges follow the written chain, without caps; N, C: chain ends. Non-standard residues stand in square brackets, D forms with d. Residues, ends and D or L forms follow the SMILES beside them. *: point of attachment. Leu(3R-OH,Nα-propionyl) = CCC(=O)N[C@H](C(=O)*)[C@H](O)C(C)C; X1 = CC(C)[C@@H](O[*:3])[C@H](N[*:1])C(=O)[*:2]; X2 = CC(C)[C@H](O[*:3])[C@@H](N[*:1])C(=O)[*:2]; NMeaThr = CN[C@H](C(=O)O)[C@H](C)O; dPhLac = O=C(O)[C@H](O)Cc1ccccc1; NMeA = CN[C@@H](C)C(=O)O; NMeDha = C=C(NC)C(=O)O

Key:
[1] = test system: BRAF(V600E)-driven OCM-1A cells; assay: IP1 accumulation in UM cells (IP-One kit); assay type: cell-based, Human; details: FIG. 3B
Text: Inhibition of signaling by constitutively active Gαq in UM cultured cell lines was quantified by measuring intracellular inositol 1-phosphate (IP1), a metabolically stable product of inositol 1,4,5-trisphosphate produced by Gαq-stimulated phospholipase Cβ. FIG. 3A Basal IP1 levels in UM cell lines driven by constitutively active Gαq (92.1 and Mel202) and BRAF (OCM-1A). FIG. 3B Effects of FR on IP1 levels in 92.1, Mel202 and OCM-1A cells. *p<0.01.
A third UM cell line (OCM-1A) driven by constitutively active BRAF(V600E) served as a negative control. Signaling by Gαq-stimulated phospholipase Cβ was quantified based on levels of inositol monophosphate (IP1), a metabolically stable product of inositol 1,4,5-trisphosphate (IP3) produced by cleavage of phosphatidylinositol 4,5-bisphosphate (PIP2). […] FR reduced IP1 levels in Mel202 and 92.1 cells >50-fold (FIG. 3B), but had only modest effect (˜2-fold) on OCM-1A cells (FIG. 3B).
Accumulation of IP1 in UM cells was measured using the IP-One kit (CiSbio, Inc; catalog number 62IPAPEB) according to the supplier's instructions. 10,000 Mel 202 cells, 20,000 92.1 cells and 20,000 OCM 1A cells were seeded into white-bottom tissue culture grade 384-well plates. Following an overnight incubation, cells were treated with FR or DMSO and returned to the incubator. […] Plates were read in a Synergy H4 Hybred Reader (BioTek, Winooski, Vt., USA). […]

92.1 cells = assay: Melanocytic re-differentiation (morphology, pigmentation, immunostaining); assay type: cell-based, Human
Procedure: FIG. 5A Morphological changes elicited by FR. UM cell lines were treated 3 d with FR and imaged by phase contrast microscopy. FR caused UM cells driven by constitutively active Gαq (92.1 and Mel202) to lose their characteristic spindle shaped and assume a stellate shape with multiple projections. FR had no effect on BRAF-driven UM cells (OCM-1A). FIG. 5B Melanocytic differentiation of FR-treated UM cells indicated by pigmentation. UM cell lines were treated 3 d with FR. Cells were pelleted and examined macroscopically. […] Scale bar=50 μm.
Gαq-mutant 92.1 UM cells were treated with FR or vehicle, and RNA was collected 1 and 3 d after treatment for RNA-Seq analysis. FIG. 7A Unsupervised principal component analysis identified FR treatment and time in culture as the two main separable factors contributing to changes in gene expression. […] FIG. 7D FR-repressed genes identified as targets of the polycomb repressive complex 2 by Geneset enrichment analysis. FIG. 7E The Ezh1/2 inhibitor GSK503 blocks the morphological differentiation elicited by FR. 92.1 UM cells were treated 7 d with GSK503 and 3 d with FR and then imaged by phase contrast microscopy. […] 92.1 cells were treated 7 d with GSK503 and 3 d with FR and pelleted. FIG. 7G PRC2 inhibition by GSK503.
Cell fixation was carried out by adding an equal volume of 2×fixative (PBS with 4% paraformaldehyde and 0.4% glutaraldehyde) to UM cells in RPMI growth medium. After 15 min at 37° C., cells were permeabilized with 0.1% Triton X-100 in PBS for 5 min, washed with PBS, and blocked with 2% fish gelatin (Sigma-Aldrich) in PBS. Primary and secondary antibodies were diluted in 2% fish gelatin in PBS. Primary antibodies included mouse monoclonal anti-pre-melanosomal protein (One World Lab, San Diego, Calif.), rabbit polyclonal anti-tyrosinase (One World Lab), rabbit polyclonal anti-dopachrome tautomerase (One World Lab), rabbit polyclonal anti-S100 (DakoCytomation, Denmark), and mouse monoclonal anti-BrdU (Life Technologies). Secondary antibodies were Alexa-fluor conjugates (Life Technologies), and the mounting agent was ProLong Gold (Life Technologies). Cell morphology was assessed by phase contrast imaging with an inverted microscope (Olympus IX72) using a 10×objective.

92.1 UM cells [2] = assay: qPCR validation of FR target genes; assay type: cell-based, Human; details: 92.1 cells; FIG. 10
Procedure: The results for six genes showing significant changes in expression in response to FR by RNA-Seq were validated by qPCR.
92.1 UM cells were treated with 100 nM FR or vehicle (DMSO) in RPMI growth medium and collected after 1 and 3 d of treatment. RNA was isolated using the RNeasy Mini Kit (Qiagen) following the manufacturer's protocol and including the optional DNase I treatment step. RNA quality was assessed on a Bioanalyzer 2100 (Agilent Technologies, Santa Clara, Calif., USA). mRNA was extracted from total RNA using a Dynal mRNA Direct kit, fragmented and reverse transcribed to double stranded cDNA with random primers before addition of adapters for library preparation. Library preparation and HiSeq2500 sequencing were performed by the Washington University Genome Technology Access Center (gtac.wustl.edu). FastQ files were aligned to the transcriptome and the whole-genome with STAR. Biologic replicates were simultaneously analyzed by edgeR and Sailfish analyses of gene-level/exon-level features. Unexpressed genes and exons were removed from the analyses. Unsupervised principal component analysis and volcano plots were generated in Bioconductor using edgeR. Significance Analysis of Microarrays (SAM), Version 4.0 was used to generate a ranked gene list, and a threshold of q<10% and fold-change >2.0 was then used to select the most highly significant genes that were down regulated in FR-treated versus vehicle control cells. This list was used as signature gene sets for Gene Ontology (GO) analysis and Gene Set Enrichment Analysis (GSEA) (45). […] Significant gene sets from GSEA analyses were combined such that genes associated with multiple related signatures were only counted once and each gene was assigned only to a single combined groupbased on the signature with the highest enrichment score for that gene. Significant gene expression changes were validated in all three UM cell lines by qPCR using fast SYBR Green Mastermix (Fisher Scientific) following the manufacturers' protocol. GAPDH was used as an endogenous control.

[3] = Retina structure (preliminary data)
Text: In this example we will determine whether FR has potential to provide vision sparing therapy for primary (ocular) UM tumors. […] Based on our preliminary studies of UM cells in culture, intravitreal injection might be therapeutically beneficial by inhibiting tumor growth, promoting apoptosis, and/or pushing tumor re-differentiation toward melanocytic phenotypes less likely to metastasize. […] Our second priority is to determine whether FR administered systemically could provide therapeutic benefit for metastatic UM tumors.

Mel202 UM cells = assay: UM cell viability, water-soluble tetrazolium salt assay; details: Homo sapiens, Mel202, read-out: EC50, inhibition of proliferation (viability)
Procedure: (§1) Cells were cultured at 37.0 in 5% CO2. […] Cell lines were grown in RPMI 1640 medium (Life Technologies, Carlsbad, Calif.) supplemented with 10% FBS and antibiotics. Cell viability was measured using a water-soluble tetrazolium salt, WTS-8 (Bimake, Houston, Tex.), following the manufacturer's protocol. Flow cytometry for analysis of cell proliferation and apoptosis was performed at the Siteman Cancer Center Flow Cytometry Core on a FACScan analyzer (BD Biosciences, San Diego Calif., USA) using a standard propidium iodide staining protocol as described previously (44).

92.1 UM cells [4] = assay: as above; details: Homo sapiens, read-out: EC50, inhibition of proliferation (viability)
Procedure: as §1

Question: What does the source list for `C=C1C(=O)N[C@@H](C)C(=O)N(C)[C@@H](C)C(=O)N[C@H]([C@@H](OC(=O)[C@@H](NC(=O)CC)[C@H](O)C(C)C)C(C)C)C(=O)N(C)[C@@H]([C@H](C)OC)C(=O)O[C@H](C(C)C)[C@H](NC(C)=O)C(=O)O[C@H](Cc2ccccc2)C(=O)N1C` [FR, [(1S)-1-[(3S,6R,9S,12S,18R,21S,22R)-21-acetamido-18-benzyl-3-[(1S)-1-methoxyethyl]-4,9,10,12,16-pentamethyl-15-methylidene-2,5,8,11,14,17,20-heptaoxo-22-propan-2-yl-1,19-dioxa-4,7,10,13,16-pentazacyclodocos-6-yl]-2-methylpropyl] (2S,3R)-3-hydroxy-4-methyl-2-(propanoylamino)pentanoate] (Ac-[X1][dPhLac][NMeDha]A[NMeA][X2](Leu(3R-OH,Nα-propionyl))[NMeaThr](Me); ester 1-C)?
Answer: effect on IP1 levels [1]: ~2 fold; cell morphology (phase contrast) (92.1 cells; 3 d FR, FIG. 5A): morphological changes indicative of re-differentiation; melanocytic pigmentation (92.1 cells; 3 d FR, FIG. 5B): strikingly increased; expression levels of TYR, DCT and PMEL (immunofluorescence) (92.1 cells; FIG. 5C): increased; expression of PMP22 and DCT (qPCR) (92.1 UM cells [2]): significantly upregulated; expression of PRC2 targets ADRA2A, HAND2, SCARF2 and WT1 (qPCR) (92.1 UM cells [2]): significant down-regulation; retina structure [3]: preserves retina structure; EC50 (Mel202 UM cells): 6 nM; EC50 (92.1 UM cells [4]): 2 nM
